One assay has as its system S. mitis. In words: microbe, parasite or virus in culture. Format: cell-based, Streptococcus mitis. Conditions: peptides 0–50 μM, 16 h, 37 °C, microaerophilic, A620 nm, three separate experiments. An excerpt: (§1) Streptococcus mutans Clarke (strain designation NCTC 10449), Pseudomonas aeruginosa (Schroeter) Migula (strain designation PAO1), Fusobacterium nucleatum, subspecies nucleatum (strain VPI 4355), and Porphyromonas gingivalis (strain 2561) were purchased from ATCC (LGC Standards Srl, Milan, Italy). Streptococcus mitis, Streptococcus oralis, and Streptococcus sanguinis were obtained from clinical isolates and characterized by morphological, biochemical, and molecular typing. S. mutans, S. mitis, S. oralis, and S. sanguinis were maintained in Brain Heart Infusion (BHI) broth or agar under microaerophilic conditions. P. aeruginosa was maintained in trypticase soy (TS) agar or broth. F. nucleatum was maintained in TS agar or broth with defibrinated sheep blood under anaerobic conditions. P. gingivalis was maintained in ATCC Medium 2722 supplemented with TS broth or agar under anaerobic conditions. Before the experiments, bacterial cultures were inoculated in fresh media (dilution 1:100) and grown for 16 h at 37 °C.
(§2) The antimicrobial activities of the tested peptides were assessed through the determination of the minimum inhibitory concentration (MIC) standardized by the Clinical and Laboratory Standards Institute. Bacterial inocula were diluted in 10 mL of MHB […]. The concentration of the bacteria was adjusted to 0.5 McFarland standard, and the bacteria were dispensed in 96-well microtiter plates (final bacterial concentration: 1 × 10^4 CFU/well). Peptides were dissolved in sterile water (stock concentration: 2 mM) and added at final concentrations ranging from 0 to 50 µM. Plates were incubated at 37 °C for 16 h. At the end of incubation, bacterial growth was recorded using a microplate reader (Varioskan Lux Reader; Thermo Fisher Scientific, Milan, Italy) by quantifying the adsorption at 620 nm. Cultures were then opportunely diluted and seeded on agar plates. Bacterial cultures inoculated with the highest final concentration of the vehicle (sterile water) or chlorhexidine hydrochloride salt (CHX, concentration range: 0.05 to 500 μg/mL; Merck, Milan, Italy) were included as controls in each test. Experiments were performed in triplicate.

A further assay deals with F. nucleatum. Briefly: microbe, parasite or virus in culture. The assay is classed as cell-based, Fusobacterium nucleatum. The settings on record: peptides 0–50 μM, 16 h, 37 °C, anaerobic, A620 nm, three separate experiments.
Text: as §1, §2

Assay [1] relates to S. mutans bacteriocin production against P. aeruginosa. In words: Bacteriocin overlay assay, S. mutans spotted on P. aeruginosa. Format: cell-based, Streptococcus mutans. The settings on record: CSP1 20 μM, microaerophilic, experimental control. On the procedure: (§3) During the formation of complex biofilm such as dental plaque, the ability of S. mutans to compete with other commensal species determines the success of the cariogenesis process. S. mutans uses antibacterial peptides, namely, bacteriocins, to overcome and subvert the composition of dental microbiota. We investigated the production of bacteriocins using the overlay assay. Overnight cultures of S. mitis, S. oralis, S. sanguinis, P. aeruginosa, F. nucleatum, or P. gingivalis were diluted 1:100 in BHI or TS broth and incubated at 37 °C until they reached an OD620 of 0.3. Cultures were added with agar (BD Difco^TM Agar) at the final concentration of 1.5% w/v and transferred in plates. Overnight cultures of S. mutans were diluted 1:100 in BHI and added with peptides (20 μM) or the vehicle with or without CSP1. Culture media were supplemented with agar to reach the final concentration of 0.7% w/v. The solutions were spotted on the surface of agar plates prepared as described above. […]
(§4) Spots (10 for each experimental group) were acquired and analyzed using NIH Image J software (version 1.53t August 2022, https://imagej.nih.gov/ij/index.html; accessed on 7 September 2022). The appearance of a clear area on the plate (bacterial growth inhibition) was evaluated as indicative of bacteriocin activity. The diameters of the area were measured in a blinded fashion.

A further assay has as its system P. aeruginosa. Briefly: microbe, parasite or virus in culture. The settings on record: peptides 0–50 μM, 16 h, 37 °C, aerobic, A620 nm, three separate experiments. Format: cell-based, Pseudomonas aeruginosa.
Text: as §1, §2

The test system of assay [2] is S. mutans bacteriocin production against F. nucleatum. In words: Bacteriocin overlay assay, S. mutans spotted on F. nucleatum. Conditions: CSP1 20 μM, 16 h, 37 °C, anaerobic. Format: cell-based, Streptococcus mutans. The protocol:
as §3, §4

For assay [3], the system named is S. mutans bacteriocin production against S. oralis. In words: Bacteriocin overlay assay, S. mutans spotted on S. oralis. Conditions: CSP1 20 μM alone vs vehicle, 16 h, 37 °C, microaerophilic. Format: cell-based, Streptococcus mutans. The protocol:
During the formation of complex biofilm such as dental plaque, the ability of S. mutans to compete with other commensal species determines the success of the cariogenesis process. S. mutans uses antibacterial peptides, namely, bacteriocins, to overcome and subvert the composition of dental microbiota. We investigated the production of bacteriocins using the overlay assay. Overnight cultures of S. mitis, S. oralis, S. sanguinis, P. aeruginosa, F. nucleatum, or P. gingivalis were diluted 1:100 in BHI or TS broth and incubated at 37 °C until they reached an OD620 of 0.3. Cultures were added with agar (BD Difco^TM Agar) at the final concentration of 1.5% w/v and transferred in plates. Overnight cultures of S. mutans were diluted 1:100 in BHI and added with peptides (20 μM) or the vehicle with or without CSP1. Culture media were supplemented with agar to reach the final concentration of 0.7% w/v. The solutions were spotted on the surface of agar plates prepared as described above. The plates were kept on the benchtop for 30 min, allowing the agar containing S. mutans to solidify, and then incubated at 37 °C for 16 h under microaerophilic or anaerobic conditions, as required.
as §4

The next assay relates to comE gene. In words: qRT-PCR, comE gene expression. Format: cell-based, Streptococcus mutans. The settings on record: CSP1 20 μM, planktonic, 8 h, qPCR. On the procedure: (§5) S. mutans was cultured in BHI supplemented with peptides or the vehicle. Cultures were centrifuged, and total RNA was isolated and purified from the bacterial pellets using the GRS Total RNA Kit—Bacteria (GK16.0100; GRISP Research Solution, Porto, Portugal), following the manufacturer’s instructions. Purified RNA was subjected to DNase I treatment to remove contaminating DNA. The RNA yield and purity were assessed by measuring the absorbance, and only samples with a ratio of 260/280 nm in the 1.8–2 range were used. cDNA was generated using the cDNA RT kit with an RNAse inhibitor (Applied Biosystems; Monza, Milan). Quantitative PCR (qRT-PCR) was performed using SYBR green mixture (iScript One Step RT-PCR kit; Bio-Rad, Segrate, Milan) to determine the transcript levels of genes using the oligonucleotides listed in Table 3. The gyrA gene served as the housekeeping gene.

For the next assay, the system named is P. gingivalis. Briefly: microbe, parasite or virus in culture. The assay is classed as cell-based, Porphyromonas gingivalis. The settings on record: peptides 0–50 μM, 16 h, 37 °C, anaerobic, A620 nm, three separate experiments.
Text: as §1, §2

A further assay relates to bip gene. Briefly: qRT-PCR, bip gene expression. Format: cell-based, Streptococcus mutans. The settings on record: CSP1 20 μM vs vehicle, 2–24 h, maximum at 8 h, qPCR. The protocol:
as §5
A general note: Quantitative PCR measures a nucleic acid by following its amplification.

The test system of another assay is comC gene. Briefly: qRT-PCR, comC gene expression. Format: cell-based, Streptococcus mutans. Conditions: CSP1 20 μM, 8 h, qPCR. On the procedure:
as §5

In brackets after ≈: the same amount, converted by molar mass.

As to `CC[C@H](C)[C@H](NC(=O)[C@H](Cc1ccccc1)NC(=O)[C@H](CC(=O)O)NC(=O)[C@H](CCCNC(=N)N)NC(=O)[C@H](Cc1ccccc1)NC(=O)[C@H](Cc1ccccc1)NC(=O)[C@H](CCCCN)NC(=O)[C@H](CO)NC(=O)[C@H](CC(C)C)NC(=O)[C@H](CCCNC(=N)N)NC(=O)[C@H](CCSC)NC(=O)[C@@H](N)CCC(=O)O)C(=O)N[C@@H](CC(C)C)C(=O)N[C@@H](CCC(N)=O)C(=O)N[C@@H](CCCNC(=N)N)C(=O)N[C@@H](CCCCN)C(=O)N[C@@H](CCCCN)C(=O)O` [CSP1], the “Minimum inhibitory concentration (MIC), S. mitis” value in the assay on S. mitis stood at 25 µM (≈ 56.1 µg/mL). Further, the “Minimum inhibitory concentration (MIC), F. nucleatum” value in the assay on F. nucleatum was over 50 µM. Besides, in assay [1], the “Replication of P. aeruginosa in presence of S. mutans stimulated with peptide” value is listed as “not affected”. The “Minimum inhibitory concentration (MIC), P. aeruginosa” value in the assay with P. aeruginosa was over 50 µM. The “Growth inhibition of F. nucleatum by S. mutans stimulated with peptide” value in assay [2] was “inhibited the growth”. In addition, the “Growth inhibition of co-cultured S. oralis by S. mutans stimulated with peptide (diameter of clear area)” value in assay [3] is recorded as “significantly inhibited the growth”. In the assay on comE gene, the “Expression of comE in S. mutans” value is listed as “increased the expression”. Besides, in the assay with P. gingivalis, the “Minimum inhibitory concentration (MIC), P. gingivalis” value is over 50 µM. Besides, the “Expression of bip in S. mutans” value in the assay with bip gene is recorded as “induced the expression”. For the same compound, the “Expression of comC in S. mutans” value in the assay on comC gene is on record as “no effects”.

These data come from article PMC9785397, “Exploiting Conserved Quorum Sensing Signals in Streptococcus mutans and Streptococcus pneumoniae” (Microorganisms, 2022).
